Here are results for eleven molecules from PMC10739260, “Shape-Based Virtual Screening of a Billion-Compound Library Identifies Mycobacterial Lipoamide Dehydrogenase Inhibitors” (ACS Bio & Med Chem Au, 2023).

One assay addresses T1, Lpd protein (Mycobacterium tuberculosis, UniProt P9WHH9).
T1 construct: made in house
T1 sequence (P9WHH9 1-464): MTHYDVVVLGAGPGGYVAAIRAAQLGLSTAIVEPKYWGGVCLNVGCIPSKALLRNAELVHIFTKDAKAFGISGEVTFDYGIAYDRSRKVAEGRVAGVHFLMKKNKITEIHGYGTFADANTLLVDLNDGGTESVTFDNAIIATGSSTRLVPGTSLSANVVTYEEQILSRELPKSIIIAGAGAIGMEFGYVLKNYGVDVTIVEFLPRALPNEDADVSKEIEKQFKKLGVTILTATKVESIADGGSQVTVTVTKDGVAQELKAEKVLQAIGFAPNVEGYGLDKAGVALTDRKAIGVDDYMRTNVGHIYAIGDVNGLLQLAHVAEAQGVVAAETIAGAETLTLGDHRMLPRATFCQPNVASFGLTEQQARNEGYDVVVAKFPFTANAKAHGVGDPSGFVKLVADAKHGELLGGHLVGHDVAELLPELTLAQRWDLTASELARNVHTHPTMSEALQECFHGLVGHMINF
In words: Surface plasmon resonance (SPR) binding to immobilized Lpd. The conditions noted are these: 25 °C.

For assay [1], the system named is Mtb. In words: Mtb MIC assay (bacterial growth inhibition). The class given is cell-based, Mycobacterium tuberculosis. The conditions noted are these: for Mtb MIC: Table S1, known actives used as probes in GPU Shape screen.
Assay [2] addresses T2, Mtb Lpd (Mycobacterium tuberculosis, UniProt P9WHH9).
T2 construct: made in house
Description: Lpd enzyme assay (spectrophotometric, DTNB, lipoamide, NADH). The class given is biochemical. As to conditions: for potency improvement over des-methyl screen hit: methylated analogue vs Z1765676493 / Z819807984, Lpd IC50; for IC50: dose response 100 to 0.005 μM, values marked * from one replicate; for inhibition at 10 µM: compound at 10 μM, read-out: LPD %inh ± SD at 10 μM. The procedure: The Lpd enzyme assay was performed at a CRO with a previously reported protocol.[9],[11] Briefly, the Lpd activity was measured by a spectrophotometric assay with DTNB, lipoamide, and NADH. Final concentrations of components in the reaction mixture were as follows: 125 μM NADH, 125 μM DTNB, 40 μM NAD+, 75 μM lipoamide in 25 mM potassium phosphate, and 1 mM EDTA pH 7.0. Compounds were tested initially at 10 μM. Compounds showing significant inhibition at 10 μM were tested in dose–response from 100 to 0.005 μM by serial dilutions. Curves were fit, and IC50 values were calculated using Prism dose–response inhibition analysis (four-parameter fit).

Assay [3] deals with Mtb. Set-up: method as in PMID 33527832. The conditions noted are these: Figure 1, representative sulfonamide series inhibitors; cited from earlier work.
Assay [4] addresses T2, Mtb Lpd. The conditions noted are these: read-out: Lpd IC50; Figure 1, representative sulfonamide series inhibitors; cited from earlier work.
For a further assay, the target named is T3, PDH complex (Mycobacterium tuberculosis, UniProt P9WHH9).
T3 sequence (P9WHH9 1-464): T1 sequence (P9WHH9 1-464)
Description: PDH complex inhibition. Format: biochemical.

The mark [5] stands for this setting: 1:1 Langmuir model, analyte line 013537.

Molecules are shown by their SMILES. Read-outs that look alike come from different tables or passages of the source. Bounds are passed on as bounds.

Consider `CC(=O)Nc1cccc(NC(=O)CN(C)S(=O)(=O)c2cc(C)cc(C(F)F)c2)c1` [1 (TDI-13537)], for which, at Lpd protein (setting [5]), the Kd is 0.241 µM and the kd amounted to 0.01243 s⁻¹. At Lpd protein (analyte line 013537-NADH), this molecule returned a Kd of 0.291 µM and a kd of 0.01141 s⁻¹. Besides, the “inhibition of Mtb bacterial growth in the MIC assay” value with Mtb [1] (data not shown) was “did not show inhibition”. For the same molecule, the “potency improvement over des-methyl screen hit” value on Mtb Lpd [2] is listed as 15- to 20 fold.

With `CCN(CC(=O)Nc1ccc(N2CCOCC2)cc1)S(=O)(=O)c1cc(C)c(F)c(C(F)(F)F)c1` [Compound 2], at Mtb Lpd [2], the IC50 came out at 0.37 µM and the “potency improvement over des-methyl screen hit” value is 15- to 20 fold.

Take `CCOC(=O)c1c(C)n[nH]c1S(=O)(=O)N(C)CC(=O)Nc1ccc(F)cc1` [Compound Z740306332]: on Mtb Lpd [2], the inhibition at 10 µM worked out at 9.6 ± 1.8% and the IC50 was 100 µM.

For `CCN(CC(=O)Nc1ccc(N2CCOCC2)cc1)S(=O)(=O)c1ccc(F)c(C(F)(F)F)c1` [Compound Z819807984], on Mtb Lpd [2], the inhibition at 10 µM was 68.9 ± 0.9% and the half-inhibitory concentration (IC50) stood at 5 ± 0.04 µM.

On to `COC(=O)c1cccc(NC2CCN(C(=O)c3cc(C)cc4cn[nH]c34)CC2)c1` [Compound Z1464810837], for which, on Mtb Lpd [2], the inhibition at 10 µM was found to be 15.7 ± 4.6% and half-maximal inhibition (IC50) required 30 µM.

With `CCN(CC(=O)Nc1cccc(OC)c1)S(=O)(=O)c1cccc2c1NC(=O)CO2` [Compound Z1601661851], at Mtb Lpd [2], the inhibition at 10 µM is 18.5 ± 1.6% and the IC50 amounted to 30 µM.

Regarding `CN(CC(=O)Nc1cccc(F)c1)S(=O)(=O)c1cccc2c1NC(=O)CO2` [Compound Z1601662276], on Mtb Lpd [2], the inhibition at 10 µM stood at 12.7 ± 1.2% and the IC50 was determined as 100 µM.

As to `CC(=O)Nc1cccc(NC(=O)CN(C)S(=O)(=O)c2cccc(C(F)F)c2)c1` [Compound Z1765676493], on Mtb Lpd [2], the inhibition at 10 µM came to 69.1 ± 2.2% and half-maximal inhibition (IC50) required 3.5 ± 2.8 µM.

Regarding `COc1ccc(NC(=O)CN(C)S(=O)(=O)c2cc(Br)cnc2N)cc1` [SL827], the “Mtb MIC” value with Mtb [3] is greater than 100 µM.

For the molecule `Cc1cc(S(=O)(=O)N(C)CC(=O)Nc2ccn(C)c(=O)c2)c2[nH]ncc2c1` [TDI-010705], the figures for the “Mtb MIC” value in the assay with Mtb [1] and with Mtb [3] were 4 µM and 3.7 µM, respectively.

As to `Cc1cc(S(=O)(=O)N2CCC[C@H]2C(=O)Nc2ccn(C)c(=O)c2)c2[nH]ncc2c1` [TDI-011002], the “Mtb MIC” value with Mtb [1] and with Mtb [3] was 25 µM in each case. Further, the IC50 on Mtb Lpd [4] was 0.05 µM; at PDH complex, 0.19 µM.
